Data from PMC10683027, “Discovery of tert-Butyl Ester Based 6-Diazo-5-oxo-L-norleucine Prodrugs for Enhanced Metabolic Stability and Tumor Delivery” (Journal of Medicinal Chemistry, 2023).
≈ marks a conversion by molar mass, not a printed value. Where “and” joins values, the source holds several entries; their conditions need not be identical. Equal entries are not always repeated.

Legend:
[1] = Single time point pharmacokinetic screening, released DON in plasma and tumor of EL4 tumor-bearing mice; type: in vivo, C57BL/6/CES1–/– mice; settings: 1 mg/kg DON equivalent SC; 30 min
Method: C57BL/6/CES1^–/– mice were obtained as a gift from the United States Army Medical Research Institute of Chemical Defense, Maryland, USA; breeding was performed in the Johns Hopkins animal facility and was conducted according to protocols reviewed and approved by the Johns Hopkins Institutional Animal Care and Use Committee in compliance with the Association for Assessment and Accreditation of Laboratory Animal Care International (AAALAC) and the Public Health Service Policy on the Humane Care and Use of Laboratory Animals (PHS Policy). Male and female C57BL/6 mice (weighing between 25 and 30 g) 6–8 weeks of age were used for the study. The animals were maintained on a 12 h light–dark cycle with ad libitum access to food (certified laboratory food: Teklad 18% Protein Extruded Rodent Diet) and water. EL4 mouse lymphoma cells were obtained as a gift from the laboratory of Dr. Jonathan Powell (Johns Hopkins University, Baltimore, MD) and maintained in RPMI 1640 medium 1X (Corning, cat. no. 10-040-CV) with 10% (v/v) fetal bovine serum (Corning, cat. no. 35-011-CV), 1% (v/v) antimycotic/antibiotic (Corning, cat. no. 30-004-CI), 2 mM L-glutamine (Corning, cat. no. 25-005-CI), and 10 mM HEPES (Corning, cat. no. 25-060-CI) in a 5% (v/v) CO2 and 95% (v/v) air incubator prior to subcutaneous (SC) injection (1 × 10^6 cells in 0.2 mL of phosphate-buffered saline) on the flank of each mouse. […]

[2] = Aqueous solubility assay in PBS buffer (pH 7.4); type: physicochemical
Method: The aqueous solubility was determined as previously reported with minor modifications.[48] Briefly, an excess amount of P11 or DRP-104 was added to PBS buffer (pH 7.4) and sonicated for 1 h at 37 °C to ensure saturation. After 1 h, the solution was filtered (0.45 μm PTFE), and the filtrate was diluted appropriately, and the concentration of each analyte was determined via LC–MS. Chemical stabilities of DRP-104 and P11 were done as previously described[18] with modifications. For chemical stability, prodrugs were spiked (10 μM) in buffer at pH 7.4 and incubated at 37 °C for 24 h. Prodrug disappearance was monitored using the developed HRMS methods.

[3] = tested on: P493B lymphoma cells suspended in human plasma; assay: Human tumor cell to plasma partitioning assay; type: cell-based; settings: 20 μM; 1 h; human plasma fraction
Method: Human tumor cell to plasma partitioning assays were conducted as we have previously described.[25] Briefly, P493B lymphoma cells were grown at 37 °C, in a humidified atmosphere with 5% CO2. Cell confluency was estimated, and cells were harvested after achieving >80% confluency and centrifuged at 200g for 5 min at 25 °C. The obtained cell pellet was resuspended in 20 mL of Dulbecco’s phosphate-buffered saline (DPBS; Gibco, USA, cat. no. 14-190-144) maintained at 37 °C, and cell count was determined using an automated cell counter (Bio-Rad, USA). Cell suspension in DPBS was further centrifuged at 200g for 5 min at 25 °C, and the cell pellet was resuspended in human plasma (Innovative Research, USA) for partitioning assessment. The final cell density after resuspending in plasma was 10 million cells/mL of plasma. Partitioning assessment was performed in triplicate. Preincubated (37 °C for 5 min) cell–plasma suspension was spiked with DRP-104 or P11 at a final concentration of 20 μM and incubated at 37 °C for 1 h. Following incubation, a 1 mL aliquot of cell–plasma suspension was centrifuged at 1000g for 5 min at 4 °C, and supernatant plasma as well as the cell pellet was collected and stored at −80 °C until bioanalysis. Both plasma and cell pellet fractions were analyzed for intact prodrug and DON levels. […]

P493B lymphoma cells = assay: Cell viability assay; type: cell-based; settings: Homo sapiens, 72 h, 72 h incubation
Method: Cell proliferation assays were performed as we have previously described.[19] Briefly, P493B lymphoma cells were plated in 96-well plates at a density of 20 000 cells/well in a final volume of 100 μL of growth media. P11, or DRP-104, was added to cells in half-log serial dilutions with a final concentration of 0.2% DMSO. Cells were allowed to proliferate for 72 h, and thereafter, 20 μL of CellTiter 96 AQueous (Promega no. 3580) was added per well and incubated for 2 h. Absorbance was measured at 490 nm. Relative cell viability was calculated from the difference between untreated cell wells (100%) and media well without cells (0%).

[4] = Stability of P11 in human plasma; type: in vitro ADME; settings: Figure 3A
Method: Briefly, intestinal tissue was homogenized over ice via probe sonication with 1:9 tissue to potassium phosphate buffer (0.1 M) conditions. Prodrugs were spiked in plasma or tissue homogenate at 10 μM final concentration with 0.2% DMSO v/v and incubated in triplicate for 0 and 60 min time points. At each time point, 100 μL of the sample was precipitated with 300 μL of methanol containing internal standard (IS; losartan, 0.5 μM). Precipitated samples were vortexed (30 s) and centrifuged at 10000g for 10 min at 4 °C. After centrifugation, 100 μL of supernatant was aliquoted and submitted for analysis. Prodrug disappearance over time was monitored by liquid chromatography–mass spectrometry (LC–MS) through peak area ratios between the analyte and internal standard.

[5] = Stability of P11 in human GI microsomes; type: in vitro ADME; settings: Figure 3A
[6] = Metabolic stability in mouse intestinal homogenate (GIh)

With `CN(C)CC(=O)N[C@@H](Cc1ccccc1)C(=O)N[C@@H](CCC(=O)C=[N+]=[N-])C(=O)OC(C)(C)C` [Prodrug P11, tert-Butyl (S)-6-Diazo-2-((S)-2-(2-(dimethylamino)acetamido)-3-phenylpropanamido)-5-oxohexanoate] the “preferential DON tumor versus plasma delivery” value [1] was “maintained the preferential DON tumor versus plasma delivery”, the solubility at 1 h ([2]; PBS buffer pH 7.4, 37 °C, 1 h) was 8100 ± 1100 µg/mL (≈ 17.6 mM) and the “fold solubility improvement compared to DRP-104” value ([2]; buffer pH 7.4) was 33 and > 30. The “stability and DON release in human plasma” value [3] was “stable in human plasma with no DON release”, the EC50 (P493B lymphoma cells) was roughly 300 nM and the “stability in human plasma” value [4] was “confirmed”. For the same molecule, the “stability in human GI microsomes” value [5] was “confirmed”, the remaining at 1 h, 10 µM ([6]; CES1–/–, mouse, intestinal homogenate) was 78 ± 2% and the Intestinal homogenate ([6]; supplementary CSV, unit not given, matches Table 1 % remaining at 1 h, in %) was 78 ± 2.
